Test results published in patent US11173137B2, “Compositions and methods to modulate chloride ion channel activity” (The Board of Trustees of the Leland Stanford Junior …, priority 2018, dated 2021).
One block for each compound: values may come before it.

Experiments:
mGluR1 = mGluR1 (Homo sapiens (Human), UniProt Q13255); assay: PDSP functional assay; format: biochemical; details: only a functional assay was performed
Procedure: (§1) Two exemplary compounds, FA44 and FA26, were screened against a panel of CNS receptors, transporters, and ion channels to examine specificity for CLC-2 in the brain. A comprehensive primary binding assay screen was performed through the NIH Psychoactive Drug Screening Program (PDSP) at UNC-Chapel Hill. Secondary or functional assays were performed for compounds showing >50% activity in the primary assay.

Alpha1A = Alpha1A (Homo sapiens (Human), UniProt P35348); assay: PDSP primary binding assay; details: primary binding assay at 10 μM
Procedure: as §1

5-HT2A = 5-HT2A (Homo sapiens (Human), UniProt P28223); assay: PDSP primary binding assay; details: primary binding assay at 10 μM
Procedure: as §1

Alpha1D = Alpha1D (Homo sapiens (Human), UniProt P25100); assay: PDSP primary binding assay; details: primary binding assay at 10 μM
Alpha1D, sequence (P25100 whole entry): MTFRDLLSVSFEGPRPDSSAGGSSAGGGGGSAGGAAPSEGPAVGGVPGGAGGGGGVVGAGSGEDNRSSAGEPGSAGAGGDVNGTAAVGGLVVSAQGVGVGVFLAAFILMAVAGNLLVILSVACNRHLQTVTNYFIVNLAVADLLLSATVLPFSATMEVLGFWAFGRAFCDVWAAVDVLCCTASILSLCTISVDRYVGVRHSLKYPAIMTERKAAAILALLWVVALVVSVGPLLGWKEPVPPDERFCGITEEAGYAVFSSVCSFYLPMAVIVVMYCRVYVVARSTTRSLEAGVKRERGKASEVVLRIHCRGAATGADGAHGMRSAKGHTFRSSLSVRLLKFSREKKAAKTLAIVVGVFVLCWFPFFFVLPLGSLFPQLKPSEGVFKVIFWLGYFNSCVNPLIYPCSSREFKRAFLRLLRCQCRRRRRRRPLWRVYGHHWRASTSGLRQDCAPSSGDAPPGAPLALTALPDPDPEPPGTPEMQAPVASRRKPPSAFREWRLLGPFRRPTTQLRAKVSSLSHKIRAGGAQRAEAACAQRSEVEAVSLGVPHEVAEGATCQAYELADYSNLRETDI
Procedure: as §1

DAT = DAT (Homo sapiens (Human), UniProt Q01959); assay: PDSP primary binding assay; details: primary binding assay at 10 μM
Procedure: as §1

MOR = MOR (Homo sapiens (Human), UniProt P35372); assay: PDSP primary binding assay; details: primary binding assay at 10 μM
MOR, sequence (P35372 whole entry): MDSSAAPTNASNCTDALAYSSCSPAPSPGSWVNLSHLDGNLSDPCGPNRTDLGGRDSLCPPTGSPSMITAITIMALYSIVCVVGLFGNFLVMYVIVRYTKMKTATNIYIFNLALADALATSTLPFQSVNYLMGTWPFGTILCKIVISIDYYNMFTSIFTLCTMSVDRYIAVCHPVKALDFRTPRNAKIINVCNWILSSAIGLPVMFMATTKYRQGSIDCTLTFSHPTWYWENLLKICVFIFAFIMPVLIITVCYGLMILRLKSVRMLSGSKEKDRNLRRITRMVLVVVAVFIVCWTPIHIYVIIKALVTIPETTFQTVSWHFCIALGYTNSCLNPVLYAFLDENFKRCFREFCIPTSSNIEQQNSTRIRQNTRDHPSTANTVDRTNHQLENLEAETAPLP
Procedure: as §1

SERT = SERT (Homo sapiens (Human), UniProt P31645); assay: PDSP primary binding assay; details: primary binding assay at 10 μM
Procedure: as §1

5-HT1E = 5-HT1E (Homo sapiens (Human), UniProt P28566); assay: PDSP primary binding assay; details: primary binding assay at 10 μM
Procedure: as §1

Beta1 = Beta1 (Homo sapiens (Human), UniProt P08588); assay: PDSP primary binding assay; details: primary binding assay at 10 μM
Procedure: as §1

D3 = D3 (Homo sapiens (Human), UniProt P35462); assay: PDSP primary binding assay; details: primary binding assay at 10 μM
D3, sequence (P35462 whole entry): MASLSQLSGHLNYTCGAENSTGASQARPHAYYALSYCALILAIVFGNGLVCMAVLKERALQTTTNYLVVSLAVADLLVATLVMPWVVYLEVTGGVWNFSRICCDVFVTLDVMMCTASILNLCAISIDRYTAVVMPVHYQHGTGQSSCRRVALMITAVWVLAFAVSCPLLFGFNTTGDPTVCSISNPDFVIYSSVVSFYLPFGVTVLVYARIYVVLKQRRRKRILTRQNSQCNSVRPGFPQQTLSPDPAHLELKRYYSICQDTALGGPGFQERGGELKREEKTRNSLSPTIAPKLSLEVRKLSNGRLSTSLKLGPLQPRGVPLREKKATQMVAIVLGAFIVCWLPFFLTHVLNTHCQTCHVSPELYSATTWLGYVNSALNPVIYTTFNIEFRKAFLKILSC
Procedure: as §1

Alpha2C = Alpha2C (Homo sapiens (Human), UniProt P18825); assay: PDSP primary binding assay; details: primary binding assay at 10 μM
Alpha2C, sequence (P18825 whole entry): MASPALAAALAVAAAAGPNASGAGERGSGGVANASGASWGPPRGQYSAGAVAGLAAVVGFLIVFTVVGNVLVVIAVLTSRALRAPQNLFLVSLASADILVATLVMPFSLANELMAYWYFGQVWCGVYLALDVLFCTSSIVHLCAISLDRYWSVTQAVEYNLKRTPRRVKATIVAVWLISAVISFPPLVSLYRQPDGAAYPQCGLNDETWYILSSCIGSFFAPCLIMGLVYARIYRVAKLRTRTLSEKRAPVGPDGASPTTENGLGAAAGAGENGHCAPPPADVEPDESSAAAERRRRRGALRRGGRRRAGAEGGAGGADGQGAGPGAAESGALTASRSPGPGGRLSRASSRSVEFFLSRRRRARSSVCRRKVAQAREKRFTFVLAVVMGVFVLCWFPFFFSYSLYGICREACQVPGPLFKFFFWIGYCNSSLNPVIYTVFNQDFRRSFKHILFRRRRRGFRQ
Procedure: as §1

5-HT2B = 5-HT2B (Homo sapiens (Human), UniProt P41595); assay: PDSP primary binding assay; details: primary binding assay at 10 μM
Procedure: as §1

5-HT3 = 5-HT3 (Homo sapiens (Human), UniProt P46098); assay: PDSP primary binding assay; details: primary binding assay at 10 μM
5-HT3, sequence (P46098 24-478, species assumed): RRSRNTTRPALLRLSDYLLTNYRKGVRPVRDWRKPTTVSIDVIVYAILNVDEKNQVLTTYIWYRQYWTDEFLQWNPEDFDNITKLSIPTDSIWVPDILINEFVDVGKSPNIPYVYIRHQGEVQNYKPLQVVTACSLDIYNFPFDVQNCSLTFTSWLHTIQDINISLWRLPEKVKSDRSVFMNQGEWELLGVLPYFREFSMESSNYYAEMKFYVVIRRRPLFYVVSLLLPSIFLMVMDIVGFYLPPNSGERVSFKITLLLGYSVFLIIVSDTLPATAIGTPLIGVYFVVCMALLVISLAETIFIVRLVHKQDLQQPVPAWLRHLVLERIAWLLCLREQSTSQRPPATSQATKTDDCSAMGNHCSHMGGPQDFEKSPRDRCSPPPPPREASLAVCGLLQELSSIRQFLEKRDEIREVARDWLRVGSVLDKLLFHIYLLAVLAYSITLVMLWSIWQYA
Procedure: as §1

PBR = PBR (Homo sapiens (Human), UniProt P30536); assay: PDSP primary binding assay; details: primary binding assay at 10 μM
PBR, sequence (P30536 whole entry, species assumed): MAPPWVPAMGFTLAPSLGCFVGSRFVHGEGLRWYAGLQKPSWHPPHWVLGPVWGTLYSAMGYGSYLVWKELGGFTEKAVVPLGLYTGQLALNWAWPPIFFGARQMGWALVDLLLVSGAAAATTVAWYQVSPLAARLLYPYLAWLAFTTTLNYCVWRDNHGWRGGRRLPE
Procedure: as §1

D1 = D1 (Homo sapiens (Human), UniProt P21728); assay: PDSP primary binding assay; details: primary binding assay at 10 μM
Procedure: as §1

Alpha2B = Alpha2B (Homo sapiens (Human), UniProt P18089); assay: PDSP primary binding assay; details: primary binding assay at 10 μM
Procedure: as §1

AMPA = assay: PDSP primary binding assay; details: primary binding assay at 10 μM
Procedure: as §1

D4 = D4 (Homo sapiens (Human), UniProt P21917); assay: PDSP primary binding assay; details: primary binding assay at 10 μM
Procedure: as §1

Sigma 1 = Sigma 1 (Homo sapiens (Human), UniProt Q99720); assay: PDSP primary binding assay; details: primary binding assay at 10 μM
Sigma 1, sequence (Q99720 whole entry): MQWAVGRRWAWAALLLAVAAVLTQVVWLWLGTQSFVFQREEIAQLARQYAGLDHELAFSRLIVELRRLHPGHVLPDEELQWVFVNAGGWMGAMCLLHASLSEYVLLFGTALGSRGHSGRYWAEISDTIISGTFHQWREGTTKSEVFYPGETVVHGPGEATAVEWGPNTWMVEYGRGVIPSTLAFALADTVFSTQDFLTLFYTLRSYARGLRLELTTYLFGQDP
Procedure: as §1

D2 = D2 (Homo sapiens (Human), UniProt P14416); assay: PDSP primary binding assay; details: primary binding assay at 10 μM
Procedure: as §1

H4 = H4 (Homo sapiens (Human), UniProt Q9H3N8); assay: PDSP primary binding assay; details: primary binding assay at 10 μM
Procedure: as §1

GABAA = assay: PDSP primary binding assay; details: primary binding assay at 10 μM
Procedure: as §1

BZP rat brain site = assay: PDSP primary binding assay; details: primary binding assay at 10 μM
Procedure: as §1

5-HT1D = 5-HT1D (Homo sapiens (Human), UniProt P28221); assay: PDSP primary binding assay; details: primary binding assay at 10 μM
Procedure: as §1

5-HT5A = 5-HT5A (Homo sapiens (Human), UniProt P47898); assay: PDSP primary binding assay; details: primary binding assay at 10 μM
Procedure: as §1

5-HT1B = 5-HT1B (Homo sapiens (Human), UniProt P28222); assay: PDSP primary binding assay; details: primary binding assay at 10 μM
Procedure: as §1

NOP = NOP (Homo sapiens (Human), UniProt P41146); assay: PDSP primary binding assay; details: primary binding assay at 10 μM
NOP, sequence (P41146 whole entry): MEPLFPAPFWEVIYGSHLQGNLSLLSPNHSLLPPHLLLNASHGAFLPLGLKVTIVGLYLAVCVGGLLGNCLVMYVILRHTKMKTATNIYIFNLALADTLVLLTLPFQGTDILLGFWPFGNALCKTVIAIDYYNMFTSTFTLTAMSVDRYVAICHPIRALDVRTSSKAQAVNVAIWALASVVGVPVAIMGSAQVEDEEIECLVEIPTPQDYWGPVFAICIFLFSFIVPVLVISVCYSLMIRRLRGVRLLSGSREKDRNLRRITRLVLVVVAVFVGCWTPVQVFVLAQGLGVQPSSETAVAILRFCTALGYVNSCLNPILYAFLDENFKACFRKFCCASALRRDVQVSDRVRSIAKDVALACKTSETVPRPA
Procedure: as §1

Sigma 2 = Sigma 2 (Homo sapiens (Human), UniProt Q5BJF2); assay: PDSP primary binding assay; details: primary binding assay at 10 μM
Procedure: as §1

5-HT6 = 5-HT6 (Homo sapiens (Human), UniProt P50406); assay: PDSP primary binding assay; details: primary binding assay at 10 μM
Procedure: as §1

H2 = H2 (Homo sapiens (Human), UniProt P25021); assay: PDSP primary binding assay; details: primary binding assay at 10 μM
H2, sequence (P25021 whole entry): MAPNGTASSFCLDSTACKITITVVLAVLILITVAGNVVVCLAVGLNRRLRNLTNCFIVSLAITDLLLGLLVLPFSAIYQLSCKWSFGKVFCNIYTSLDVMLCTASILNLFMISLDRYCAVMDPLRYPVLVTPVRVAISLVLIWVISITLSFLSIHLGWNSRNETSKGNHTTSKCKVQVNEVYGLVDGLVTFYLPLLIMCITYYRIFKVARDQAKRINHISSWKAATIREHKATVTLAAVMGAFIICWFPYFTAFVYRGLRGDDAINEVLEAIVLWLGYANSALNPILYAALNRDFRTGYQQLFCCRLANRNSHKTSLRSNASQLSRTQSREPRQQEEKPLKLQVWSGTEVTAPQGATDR
Procedure: as §1

5-HT7 = 5-HT7 (Homo sapiens (Human), UniProt P34969); assay: PDSP primary binding assay; details: primary binding assay at 10 μM
Procedure: as §1

KOR = KOR (Homo sapiens (Human), UniProt P41145); assay: PDSP primary binding assay; details: primary binding assay at 10 μM
Procedure: as §1

Oxytocin = Oxytocin (Homo sapiens (Human), UniProt P30559); assay: PDSP primary binding assay; details: primary binding assay at 10 μM
Procedure: as §1

NMDA = assay: PDSP primary binding assay; details: primary binding assay at 10 μM
Procedure: as §1

KA = assay: PDSP primary binding assay; details: primary binding assay at 10 μM
Procedure: as §1

NET = NET (Homo sapiens (Human), UniProt P23975); assay: PDSP primary binding assay; details: primary binding assay at 10 μM
NET, sequence (P23975 whole entry): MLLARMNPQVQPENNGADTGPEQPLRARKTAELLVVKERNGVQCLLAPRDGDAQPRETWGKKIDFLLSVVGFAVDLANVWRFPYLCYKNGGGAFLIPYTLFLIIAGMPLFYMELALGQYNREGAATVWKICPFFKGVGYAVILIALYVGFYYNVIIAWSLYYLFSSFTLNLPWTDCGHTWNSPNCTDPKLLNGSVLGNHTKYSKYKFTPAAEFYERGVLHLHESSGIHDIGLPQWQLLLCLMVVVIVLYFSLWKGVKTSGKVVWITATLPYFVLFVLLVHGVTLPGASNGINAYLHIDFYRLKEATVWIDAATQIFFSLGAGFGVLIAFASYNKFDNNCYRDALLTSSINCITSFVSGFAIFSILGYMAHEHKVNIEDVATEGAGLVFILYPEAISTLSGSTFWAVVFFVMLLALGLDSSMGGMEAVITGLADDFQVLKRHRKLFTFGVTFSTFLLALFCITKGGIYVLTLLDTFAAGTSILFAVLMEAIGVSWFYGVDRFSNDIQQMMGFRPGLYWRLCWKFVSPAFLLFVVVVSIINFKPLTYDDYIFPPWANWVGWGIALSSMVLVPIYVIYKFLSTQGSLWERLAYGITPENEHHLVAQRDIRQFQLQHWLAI
Procedure: as §1

Beta2 = Beta2 (Homo sapiens (Human), UniProt P07550); assay: PDSP primary binding assay; details: primary binding assay at 10 μM
Procedure: as §1

Calcium channel = assay: PDSP primary binding assay; details: primary binding assay at 10 μM
Procedure: as §1

Beta3 = Beta3 (Homo sapiens (Human), UniProt P13945); assay: PDSP primary binding assay; details: primary binding assay at 10 μM
Beta3, sequence (P13945 whole entry): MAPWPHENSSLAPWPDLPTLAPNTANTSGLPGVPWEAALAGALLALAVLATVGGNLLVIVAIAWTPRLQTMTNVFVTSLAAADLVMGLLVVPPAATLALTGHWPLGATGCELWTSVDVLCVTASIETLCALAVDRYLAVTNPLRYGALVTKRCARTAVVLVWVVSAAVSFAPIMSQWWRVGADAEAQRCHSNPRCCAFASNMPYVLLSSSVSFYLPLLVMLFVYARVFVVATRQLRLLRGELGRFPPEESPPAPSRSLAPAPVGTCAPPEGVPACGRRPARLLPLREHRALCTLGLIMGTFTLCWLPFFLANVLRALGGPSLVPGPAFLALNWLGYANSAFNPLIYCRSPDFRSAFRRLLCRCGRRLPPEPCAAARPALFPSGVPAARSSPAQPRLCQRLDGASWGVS
Procedure: as §1

DOR = DOR (Homo sapiens (Human), UniProt P41143); assay: PDSP primary binding assay; details: primary binding assay at 10 μM
Procedure: as §1

M2 = M2 (Homo sapiens (Human), UniProt P08172); assay: PDSP primary binding assay; details: primary binding assay at 10 μM
M2, sequence (P08172 whole entry): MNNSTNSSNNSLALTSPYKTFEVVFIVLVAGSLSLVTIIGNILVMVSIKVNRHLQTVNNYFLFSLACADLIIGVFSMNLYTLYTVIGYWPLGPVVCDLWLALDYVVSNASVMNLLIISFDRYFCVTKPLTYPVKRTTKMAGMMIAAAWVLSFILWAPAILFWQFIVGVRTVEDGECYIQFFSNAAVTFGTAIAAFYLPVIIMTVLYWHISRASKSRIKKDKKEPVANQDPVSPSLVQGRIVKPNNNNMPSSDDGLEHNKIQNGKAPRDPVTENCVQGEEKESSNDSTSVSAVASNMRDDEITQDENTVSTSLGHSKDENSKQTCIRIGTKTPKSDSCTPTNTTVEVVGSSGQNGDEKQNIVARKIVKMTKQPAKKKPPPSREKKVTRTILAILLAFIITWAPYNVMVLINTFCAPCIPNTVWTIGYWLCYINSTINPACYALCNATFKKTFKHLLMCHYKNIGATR
Procedure: as §1

D5 = D5 (Homo sapiens (Human), UniProt P21918); assay: PDSP primary binding assay; details: primary binding assay at 10 μM
Procedure: as §1

SMILES: O=C(O)c1ccccc1Nc1c(Cl)ccc(OCc2ccccc2)c1Cl [AK3-99B]
Ki (mGluR1): > 10 µM | % (10 μM) (Alpha1A): 24.26% | % (10 μM) (5-HT2A): 19.70% | % (10 μM) (Alpha1D): 7.20% | % (10 μM) (DAT): −17.73% | % (10 μM) (MOR): 9.03% | % (10 μM) (SERT): 4.65% | % (10 μM) (5-HT1E): 11.82% | % (10 μM) (Beta1): −13.11% | % (10 μM) (D3): 18.42% | % (10 μM) (Alpha2C): 17.28% | % (10 μM) (5-HT2B): 14.38% | % (10 μM) (5-HT3): −7.63% | % (10 μM) (PBR): 2.28% | % (10 μM) (D1): 27.05% | % (10 μM) (Alpha2B): 15.62% | % (10 μM) (AMPA): 21.14% | % (10 μM) (D4): −0.19% | % (10 μM) (Sigma 1): 3.95% | % (10 μM) (D2): −6.96% | % (10 μM) (H4): 8.29% | % (10 μM) (GABAA): −17.65% | % (10 μM) (BZP rat brain site): 40.75% | % (10 μM) (5-HT1D): 6.77% | % (10 μM) (5-HT5A): −5.77% | % (10 μM) (5-HT1B): −0.25% | % (10 μM) (NOP): 24.65% | % (10 μM) (Sigma 2): −9.10% | % (10 μM) (5-HT6): −10.67% | % (10 μM) (H2): 25.62% | % (10 μM) (5-HT7): −29.75% | % (10 μM) (KOR): 29.90% | % (10 μM) (Oxytocin): 8.80% | % (10 μM) (NMDA): 39.29% | % (10 μM) (KA): 13.56% | % (10 μM) (NET): 33.59% | % (10 μM) (Beta2): −8.08% | % (10 μM) (Calcium channel): 12.22% | % (10 μM) (Beta3): 32.58% | % (10 μM) (DOR): 16.22% | % (10 μM) (M2): 14.57% | % (10 μM) (D5): 27.29%

Ki (mGluR1): > 10 µM | % (10 μM) (Alpha1A): 12.29% | % (10 μM) (5-HT2A): 18.91% | % (10 μM) (Alpha1D): −10.12% | % (10 μM) (DAT): 9.23% | % (10 μM) (MOR): −0.18% | % (10 μM) (SERT): 30.25% | % (10 μM) (5-HT1E): 10.43% | % (10 μM) (Beta1): 22.04% | % (10 μM) (D3): −4.66% | % (10 μM) (Alpha2C): 3.41% | % (10 μM) (5-HT2B): 45.16% | % (10 μM) (5-HT3): 28.75% | % (10 μM) (PBR): 8.22% | % (10 μM) (D1): −9.96% | % (10 μM) (Alpha2B): −28.62% | % (10 μM) (AMPA): 28.20% | % (10 μM) (D4): −0.65% | % (10 μM) (Sigma 1): 38.52% | % (10 μM) (D2): 7.69% | % (10 μM) (H4): 2.23% | % (10 μM) (GABAA): −4.29% | % (10 μM) (BZP rat brain site): 29.32% | % (10 μM) (5-HT1D): 44.06% | % (10 μM) (5-HT5A): 28.19% | % (10 μM) (5-HT1B): 49.89% | % (10 μM) (NOP): 21.14% | % (10 μM) (Sigma 2): −8.14% | % (10 μM) (5-HT6): 18.68% | % (10 μM) (H2): 5.35% | % (10 μM) (5-HT7): 17.51% | % (10 μM) (KOR): 4.11% | % (10 μM) (Oxytocin): −1.41% | % (10 μM) (NMDA): 24.18% | % (10 μM) (KA): 36.60% | % (10 μM) (NET): 17.36% | % (10 μM) (Beta2): 4.77% | % (10 μM) (Calcium channel): 23.69% | % (10 μM) (Beta3): 24.76% | % (10 μM) (DOR): 16.59% | % (10 μM) (M2): −8.25% | % (10 μM) (D5): 31.58%
SMILES: O=C(O)c1cccnc1Nc1c(Cl)ccc(OCc2ccccc2)c1Cl [AK3-238]
